Assay results reported in US12338270B2, “Pharmaceutical composition comprising polypeptide” (D&D Pharmatech Inc., priority 2018, dated 2025).
Positions of bridges follow the written chain, without caps; N, C: chain ends. Non-standard residues stand in square brackets, D forms with d. Residues, ends and D or L forms follow the SMILES beside them. No end group written: not given here. Aib = CC(C)(N)C(=O)O

Legend:
[1] = target: human glucagon GLP-1 receptor (Homo sapiens, UniProt P43220); assay: cell-based
Method: Thereafter, the cells were incubated for 4 hours under conditions of a temperature of 37° C. in a CO2 incubator.

[2] = animal experiment on anti-obesity effect of Example 1; assay type: in vivo; conditions: no details
Pancreatic lipase = target: T1, Pancreatic lipase (Homo sapiens, UniProt P16233); conditions: background statement; cited from earlier work
T1 sequence (P16233 17-465): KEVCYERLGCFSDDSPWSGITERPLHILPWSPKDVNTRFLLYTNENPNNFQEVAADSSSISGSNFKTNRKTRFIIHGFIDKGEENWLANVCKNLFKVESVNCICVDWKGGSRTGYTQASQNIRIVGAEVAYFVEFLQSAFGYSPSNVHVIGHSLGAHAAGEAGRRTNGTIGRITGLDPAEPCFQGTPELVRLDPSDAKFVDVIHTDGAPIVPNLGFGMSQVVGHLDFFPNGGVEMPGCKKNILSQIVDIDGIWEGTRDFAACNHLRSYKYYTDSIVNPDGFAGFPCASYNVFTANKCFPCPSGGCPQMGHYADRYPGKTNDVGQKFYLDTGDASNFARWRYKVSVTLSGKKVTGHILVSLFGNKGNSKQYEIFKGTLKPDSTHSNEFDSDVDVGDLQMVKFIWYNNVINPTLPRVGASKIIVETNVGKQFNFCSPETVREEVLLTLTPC

[3] = system: obesity animal model (C57BL/6 mice, 60% high-fat diet); assay: ipGTT in obesity model, Examples 2 and 6 (Experimental Example 6); assay type: in vivo; conditions: 2 g/kg glucose i.p. after 2 weeks of 20 nmol/kg s.c. once every other day; FIG. 6
Method: (§1) To check a preventing or therapeutic effect of the conjugates of Examples 2 and 6, which had different amino acid sequences, on obesity or diabetes, an animal model of obesity was prepared by feeding a 60% high-fat diet to normal C57BL/6 mice (approximately 6 weeks old) for approximately 24 weeks, and increasing the body weights of the mice to approximately 50 g in average. Thereafter, each of the conjugates of Examples 2 or 6 was administered by subcutaneous injection at a dose of 20 nmol/kg once every other day for 2 weeks. As the control, PBS was administered instead of the conjugates of Examples. For 2 weeks when the conjugates of Examples 2 or 6 were administered, changes in blood glucose with time were measured. Also, to perform an intraperitoneal glucose tolerance test (ipGTT), 2 g/kg of glucose was administered intraperitoneally after the 2-week administration of the drug, and changes in blood glucose with the elapse of time (0, 15, 30, 60, 90, and 120 minutes) were measured.

[4] = system: obesity animal model (C57BL/6 mice, 60% high-fat diet); assay: blood glucose in obesity model, Examples 2 and 6 (Experimental Example 6); assay type: in vivo; conditions: 20 nmol/kg s.c. once every other day for 2 weeks; FIG. 5
Method: as §1

human glucagon GLP-1 receptor, sequence (P43220 24-463): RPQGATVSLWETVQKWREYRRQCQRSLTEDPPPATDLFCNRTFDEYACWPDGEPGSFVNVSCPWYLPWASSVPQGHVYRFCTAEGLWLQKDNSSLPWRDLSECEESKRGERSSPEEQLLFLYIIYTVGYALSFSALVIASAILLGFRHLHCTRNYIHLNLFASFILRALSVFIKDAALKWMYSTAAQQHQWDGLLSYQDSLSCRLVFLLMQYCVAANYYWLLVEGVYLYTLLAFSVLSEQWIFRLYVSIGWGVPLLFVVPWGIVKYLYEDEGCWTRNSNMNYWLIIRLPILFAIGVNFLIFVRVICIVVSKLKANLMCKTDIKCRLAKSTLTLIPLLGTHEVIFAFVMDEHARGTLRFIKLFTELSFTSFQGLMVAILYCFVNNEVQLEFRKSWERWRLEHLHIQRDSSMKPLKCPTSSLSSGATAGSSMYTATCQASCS

Compound: CSCC[C@H](NC(=O)[C@H](CC(C)C)NC(=O)[C@H](Cc1c[nH]c2ccccc12)NC(=O)[C@H](CCC(N)=O)NC(=O)[C@@H](NC(=O)[C@H](Cc1ccccc1)NC(=O)[C@H](CCC(=O)O)NC(=O)[C@@H]1CCCCNC(=O)CC[C@H](NC(=O)[C@H](CC(=O)O)NC(=O)[C@H](CC(C)C)NC(=O)[C@H](Cc2ccc(O)cc2)NC(=O)[C@H](CCCCN)NC(=O)[C@H](CO)NC(=O)[C@H](Cc2ccc(O)cc2)NC(=O)[C@H](CC(=O)O)NC(=O)[C@H](CO)NC(=O)[C@@H](NC(=O)[C@H](Cc2ccccc2)NC(=O)[C@@H](NC(=O)CNC(=O)[C@H](CCC(N)=O)NC(=O)C(C)(C)NC(=O)[C@@H](N)Cc2c[nH]cn2)[C@@H](C)O)[C@@H](C)O)C(=O)N[C@@H](CCC(N)=O)C(=O)N[C@@H](C)C(=O)N[C@@H](C)C(=O)N1)C(C)C)C(=O)N[C@@H](CC(N)=O)C(=O)N[C@H](C(=O)N[C@@H](CS)C(=O)O)[C@@H](C)O [Example 1] (H-H[Aib]QGTFTSDYSKYLDEQAAKEFVQWLMNTC-OH; lactam 16-20 (inferred); N-terminus and C-terminus assumed)
- EC50 [1]: 0.13 nM
- anti-obesity effect [2]: had an anti-obesity effect

Compound: CCCCCCCCCCC[C@@H](C[C@@H]1OC(=O)[C@H]1CCCCCC)OC(=O)[C@H](CC(C)C)NC=O [tetrahydrolipstatin (orlistat), tetrahydrolipstatin]
- inhibition of absorption of ingested fats (Pancreatic lipase): approximately 30%

Compound: Example 6: Conjugate of polypeptide H(Aib)QGTFTSDYSKYLDEEAVKEFVQWLMNTC (SEQ ID NO. 4) and tri-branched mPEG-MAL (MW: 50 kDa) (H[Aib]QGTFTSDYSKYLDEEAVKEFVQWLMNTC; not fully specified (residue 30, bridges); printed as H(Aib)QGTFTSDYSKYLDEEAVKEFVQWLMNTC; also: conjugate with tri-branched mPEG-MAL 50 kDa)
- increase in blood glucose in ipGTT vs control [3]: an increase in blood glucose was significantly reduced
- level of blood glucose vs control [4]: a level of blood glucose was lowered
